The record followed here is PubChem BioAssay (NCI).

What all share (assay): growth of human tumour cells (NCI), 48 h
For experiment [1], the system named is A498 renal.
Experiment [2] has as its system DU-145 prostate.
For experiment [3], the system named is KM12 colon.
Experiment [4] relates to MCF7 breast.
The subject of experiment [5] is NCI-H522 lung.
Experiment [6] has as its system OVCAR-3 ovarian.
Experiment [7] concerns PC-3 prostate.
Experiment [8] concerns SK-MEL-2 melanoma.
In experiment [9] the test system is UACC-257 melanoma.
In experiment [10] the test system is UACC-62 melanoma.

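Five compound concentrations were applied to cells in 96-well plates for 48 hours; endpoints were derived by simple linear interpolation of the resulting dose-response curve. GI50 marks 50% less growth. At the TGI there is no net growth.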

Turning to `CCCCCCCCCCCCCCCCCCN(C)CC(COP(=O)([O-])OCC[N+](C)(C)C)OC` (stereo not drawn), the TGI is 39.3 µM in experiment [1]; greater than 100 µM in [2]; 7.71 µM in [3]; greater than 62.3 µM in experiment [4]; 30.2 µM in [5]; 51.6 µM in experiment [6]. Also, the TGI came to 32.9 µM in [7], 53.7 µM in experiment [8], 56.4 µM in experiment [9] and 32.9 µM in experiment [10].

Take `N#Cc1ccc(-n2c3ccccc3c3ccc4c(c32)C(=O)C=CC4=O)cc1`: the TGI in [1] was 11 µM; in experiment [2] it was greater than 24.7 µM; in experiment [3], 26.5 µM; in experiment [4] it was 8.04 µM; in experiment [5], 1.19 µM; in [6], 11.1 µM. The TGI in [7] turned out to be 8.98 µM; in experiment [8] it was 28.9 µM; in experiment [9] it was 13.9 µM; in experiment [10], 15.6 µM.

With `Oc1ccc(-c2nc3ccc(Cl)cc3s2)cc1`, the TGI was 35.2 µM in experiment [1]; 31.1 µM in experiment [2]; 34.2 µM in experiment [3]; 22.6 µM in [4]; 31.7 µM in experiment [5]; 40.7 µM in [6]. Further, the TGI in experiment [7] amounted to 37.5 µM; in [8], 34 µM; in [9] it was 34.4 µM; in experiment [10], 31.2 µM.

As for `CO/N=C(\C)c1cccc(Nc2c3ccccc3nc3occc23)c1`, the TGI in experiment [1] amounted to 38.9 µM; in experiment [2], 44.4 µM; in [3], 39.5 µM; in [4] it was 28.6 µM; in [5], 7.64 µM; in [6], 19 µM. Moreover, the TGI was greater than 100 µM in experiment [7], 15.5 µM in experiment [8], 25.6 µM in [9] and 22.5 µM in experiment [10].

Consider `C/C(=N\NC(=S)NCCCNC(=S)N/N=C(\C)c1ccccn1)c1ccccn1`, for which the TGI in [1] is 26.2 µM; in experiment [2], 33.9 µM; in experiment [3], greater than 76.1 µM; in experiment [4], greater than 50.6 µM; in experiment [5], greater than 49.4 µM; in experiment [6], 20.7 µM. Also, the TGI in experiment [7] is greater than 91.5 µM; in [8], greater than 50.9 µM; in [9] it was 29 µM; in experiment [10] it was 14.2 µM.

Turning to `O=C1CSC(c2cccc([N+](=O)[O-])c2)N1c1ccc(-n2c(-c3ccccc3)nc3ccccc3c2=O)cc1` (stereo not drawn), the TGI in experiment [1], in experiment [2], in experiment [3], in experiment [4], in [5] and in experiment [6] was greater than 100 µM each time. The TGI in experiment [7], in experiment [8], in [9] and in experiment [10] was greater than 100 µM in each case.

For `N#C/C(N)=C(\C#N)NC(=O)C(=O)N/C(C#N)=C(\N)C#N`, the TGI in experiment [1], in experiment [2], in [3], in [4], in [5] and in experiment [6] was greater than 100 µM throughout. In addition, the TGI in [7], in experiment [8], in experiment [9] and in experiment [10] was greater than 100 µM each time.

Consider `O=[N+]([O-])c1ccc(N/N=C/c2ccc(OCCCCCCCCCCCO)cc2)c([N+](=O)[O-])c1`, for which the TGI was greater than 100 µM in [1]; greater than 95.9 µM in experiment [2]; 7.84 µM in experiment [3]; greater than 93.6 µM in experiment [4]; 9.44 µM in [5]; greater than 100 µM in experiment [6]. For the same molecule, the TGI in [7] came out at 14.7 µM; in experiment [8], 56.1 µM; in experiment [9], 15.2 µM; in experiment [10] it was 7.74 µM.

Regarding `COc1cc2c(cc1OCCCC(=O)Nc1ccc3ccc4cccc5ccc1c3c45)N=C[C@@H]1CCCN1C2=O`, the GI50 in experiment [1] was less than 24.3 nM; in experiment [2] it was less than 10 nM; in experiment [3], 104 nM; in experiment [5], less than 13.3 nM; in experiment [6] it was 197 nM; in [7] it was 222 nM. In addition, the values for the GI50 in experiment [8], in experiment [9] and in experiment [10] were less than 10 nM, 36.8 nM and less than 10 nM, respectively. Also, the TGI is less than 0.0509 µM in [1]; less than 0.01 µM in experiment [2]; 0.725 µM in experiment [3]; 0.297 µM in experiment [4]; 0.518 µM in experiment [6]; 6.69 µM in [7]. For the same molecule, the TGI was less than 0.01 µM in experiment [8], 0.104 µM in experiment [9] and 0.0263 µM in experiment [10].

On to `CCCCn1c2c(n(CCCC)c1=S)-c1c(n(CCCC)c(=S)n1CCCC)SSc1c(n(CCCC)c(=S)n1CCCC)-c1c(n(CCCC)c(=S)n1CCCC)SSc1c(n(CCCC)c(=S)n1CCCC)-c1c(n(CCCC)c(=S)n1CCCC)SS2`, for which the TGI in [1] is greater than 50 µM; in experiment [2], greater than 50 µM; in [3], greater than 50 µM; in [4] it was 48 µM; in [5] it was 1.86 µM; in experiment [6], 14.6 µM. Further, the TGI was 18.9 µM in experiment [7], 29.3 µM in experiment [8], greater than 50 µM in experiment [9] and 20.3 µM in [10].

With `OC(c1cc(C23CC4CC(CC(C4)C2)C3)nc2c(Cl)cc(Cl)cc12)C1CCCCN1` (stereo not drawn), the TGI in experiment [1] was found to be 3.05 µM; in experiment [2], 3.29 µM; in experiment [3] it was 3.07 µM; in experiment [4], 2.9 µM; in experiment [5], 3.33 µM; in experiment [6] it was 3.3 µM. Besides, the TGI in experiment [7] turned out to be 3.09 µM; in experiment [8], 3.46 µM; in [9], 3.53 µM; in [10], 3.16 µM.

For `N#Cc1c(N)nc(Sc2ccccc2N)c(C#N)c1-c1ccc(Cl)cc1`, the TGI was 16.9 µM in experiment [1]; greater than 58.2 µM in experiment [2]; 35.9 µM in [3]; 29.6 µM in experiment [4]; 35.8 µM in experiment [5]; 31.9 µM in experiment [6]. In addition, the TGI in experiment [7] was found to be 20.7 µM; in experiment [8], 18.2 µM; in [9] it was 62.9 µM; in experiment [10] it was 13 µM.

In the case of `CCC(=O)Nc1ccc(N2C(=O)C(Cl)C2c2ccc(SC)cc2)cc1` (stereo not drawn), the TGI in experiment [1], in experiment [2], in experiment [3], in [4], in [5] and in experiment [6] was greater than 100 µM each time. Further, the TGI in experiment [7], in experiment [8], in [9] and in [10] was greater than 100 µM in each case.

As to `CCC(C#N)NCc1cccc(CNC(C#N)CC)c1` (stereo not drawn), the TGI in experiment [1], in experiment [2], in experiment [3], in [4], in experiment [5] and in experiment [6] was greater than 100 µM throughout. The TGI in experiment [7], in [8], in experiment [9] and in [10] was greater than 100 µM throughout.

With `COc1ccc(C(=O)/C=C/c2cc(O)c(O)c(F)c2F)c(OC)c1`, the TGI in [1] is 55.5 µM; in experiment [2], greater than 100 µM; in experiment [3] it was 33.5 µM; in experiment [4], 49.1 µM; in experiment [5] it was 30.3 µM; in experiment [6], 85.5 µM. Also, the TGI in [7] is 40.6 µM; in experiment [8] it was 33.6 µM; in experiment [9], 41.8 µM; in [10] it was 42.8 µM.
